Values of other authors, collected in patent US11318093B2, “Dental topical anesthetic gel” (Pac-Dent, Inc., priority 2019, dated 2022).

Legend:
[1] = Evans 1991
[2] = system: MCP-2 chemokine and other proinflammatory cytokines; conditions: Petrosino et al. 2018; in vitro ACD model; inhibition of MCP-2 chemokine and proinflammatory cytokine production
[3] = in vivo
[4] = system: methicillin-resistant Staphylococcus aureus strains (MRSA); conditions: European research; strains resistant to several classes of drugs

CCCCCc1cc(O)c2c(c1)OC(C)(C)[C@@H]1CCC(C)=C[C@@H]21 [THC, tetrahydrocannabinol]
anti-inflammatory potency relative to aspirin [1]: twenty times that of aspirin | anti-inflammatory potency relative to hydrocortisone [1]: twice that of hydrocortisone | cyclooxygenase (COX) inhibition (cyclooxygenase (COX)): without any cyclooxygenase (COX) inhibition

CCCCCc1cc(O)c2c(c1)OC(C)(CCC=C(C)C)C=C2 (stereo not drawn) [CBC, cannabichromene]
anti-inflammatory properties [2]: some anti-inflammatory benefits | pain and inflammation associated with collagen-induced osteoarthritis [3]: block pain and inflammation

C=C(C)[C@@H]1CCC(C)=C[C@H]1c1c(O)cc(CCCCC)cc1O [CBD, cannabidiol]
anti-inflammatory properties [2]: potent anti-inflammatory properties

C=C(C)[C@@H]1CCC(C)=C[C@H]1c1c(O)cc(CCC)cc1O [CBDV, cannabidivarin]
anti-inflammatory properties [2]: some anti-inflammatory benefits

CCCCCc1cc(O)c(C/C=C(\C)CCC=C(C)C)c(O)c1 [CBG, cannabigerol]
antibacterial agent against MRSA [4]: effective antibacterial agent | anti-inflammatory properties [2]: some anti-inflammatory benefits
